The values that follow come from publication PMC5729429, “Gimatecan exerts potent antitumor activity against gastric cancer in vitro and in vivo via AKT and MAPK signaling pathways” (Journal of Translational Medicine, 2017).

Structures are written as SMILES.

In assay [1] the test system is AKT and MAPK signaling pathways. Description: Western blot of AKT and MAPK pathway molecules in GC cells. In kind it is cell-based, human. The settings on record: 48 h. The protocol: SNU-1, HGC27 and NCI-N87 cells were starved in serum-free medium overnight, exposed to inhibitors for 48 h and harvested at 70–80% confluence. Total protein was extracted from cells or xenograft tissues on ice, using RIPA Lysis Buffer (Beyotime, Shanghai, China) supplemented with complete protease inhibitor and phosphatase inhibitor cocktail (Roche, Basel, Switzerland). Protein concentration was measured using a BCA Protein Assay Kit (Beyotime, Shanghai, China), and 50 μg protein from each sample was separated by 10% SDS-PAGE. After transfer to nitrocellulose membranes (GE Healthcare, Piscataway, NJ), samples were incubated with corresponding primary antibodies diluted in 5% BSA at 4 °C overnight and then with secondary antibodies at room temperature for 1 h. Proteins were visualized with a chemiluminescent detection system (GE Healthcare), using ECL plus Western blot reagents (GE Healthcare). Western-blotting bands were quantified and normalized by ImageJ software.
Cells were starved in serum-free medium overnight, exposed to gimatecan or irinotecan for 48 h and harvested at 70–80% confluence. Total protein of SNU-1 and NCI-N87 was extracted and the expression of TopI, pAKT, pMEK, pERK, p-p38 MAPK and pJNK2 were assessed by western-blotting followed by quantification and normalization by ImageJ. All data are mean ± SD of three independent experiments. Compared with controls, *p < 0.05

For a further assay, the system named is HGC27 cells. Briefly: Annexin V-PE/7-AAD apoptosis assay (flow cytometry), HGC27. The settings on record: 1000 nM, 24 h. The assay is classed as cell-based, human. The protocol: Apoptosis was measured by staining with phycoerythrin (PE)-annexin V and 7-amino-actinomycin (7-AAD) (BD Biosciences, Erembodegem, Belgium) for 15 min at room temperature in the dark, followed by flow cytometry (BD Biosciences) within 1 h. Apoptosis was analyzed with FlowJo 7.6 software (FlowJo, LLC, Ashland, Oregon).
Supplementary file 12967_2017_1360_MOESM2_ESM.pdf: Additional file 2: Figure S2. Gimatecan induces apoptosis in HGC27 cell line. (A) Compared with irinotecan, gimatecan induced higher cell apoptosis in HGC27 cell. Cells were treated with gimatecan (0–1 µM) and irinotecan (0–1 µM) for 24 h and stained with Annexin V-PE/7-AAD. Sums of percentages of early apoptosis (Q3) and late apoptosis (Q2) were calculated as the total apoptosis ratios. (B) Pro- and anti-apoptotic proteins including Bcl-2, Bak, PARP and cleaved PARP were assessed by western-blotting in HGC27 cell. Western-blotting bands were quantified and normalized by ImageJ. All data are means ± SD of three independent experiments. *Compared with controls, p < 0.05; ns, p > 0.05.

In another assay the test system is ABCG2. The arrangement: method as in earlier work. The settings on record: ref 32 (Marchetti et al., 2007); cited from earlier work.

`CC[C@@]1(O)C(=O)OCc2c1cc1n(c2=O)Cc2c-1nc1ccccc1c2/C=N/OC(C)(C)C` [Gimatecan, 7-t-butoxyiminomethylcamptothecin]: the “effect on AKT and MAPK pathway molecules” value in assay [1] (NCI-N87 cells) was “only inhibited expression of pAKT and pERK”; in assay [1] (SNU-1 and HGC27 cells, pAKT, pMEK, pERK inhibited, p-p38 and pJNK2 upregulated) it was “significantly inhibited the AKT pathway and activated the JNK2 and p38 MAPK pathway”. The “proportion of apoptotic cells” value with HGC27 cells is listed as 14.27 ± 1.69%. The “resistance resulting from ABCG2 expression” value in the assay on ABCG2 was “eight to tenfold”.
